Values quoted from earlier work, collected in patent US9078925B2, “Pharmaceutical semi-solid composition of isotretinoin” (GALEPHAR PHARMACEUTICAL RESEARCH, INC., priority 2012, dated 2015).
Like-named read-outs stand apart in the source and are kept apart here.

Columns and labels:
[1] = not given; remark: listed apart in the source

bioavailability after an oral intake (fasted conditions): 25% | bioavailability after an oral intake (fed conditions): 40% | time to reach steady-state concentrations (of treatment): 1 week | solubility in water [1]: poorly soluble in water
SMILES: CC1=C(/C=C/C(C)=C/C=C/C(C)=C\C(=O)O)C(C)(C)CCC1 [Isotretinoin, 13-cis retinoic acid]
